Results taken from US8536202B2, “Triazole-substituted anthranilamides as pesticides” (Bayer Cropscience AG, priority 2010, dated 2013).
Read-outs that look alike come from different tables or passages of the source.

Legend:
Boophilus microplus = Boophilus microplus test (BOOPMI injection); assay type: in vivo; details: Rhipicephalus microplus, 168 h, 20 μg/animal, after 7 days, read-out: activity in % (no fertile eggs laid)
Protocol: (§1) Solvent: dimethyl sulphoxide
An appropriate preparation of active compound is prepared by mixing 10 mg of active compound with 0.5 ml of solvent and diluting the concentrate with solvent to the desired concentration. The solution of active compound is injected into the abdomen (Boophilus microplus), and the animals are transferred to dishes and kept in a climatized room. Activity is assessed by deposition of fertile eggs.
After 7 days, the activity in % is assessed. Here, 100% means that none of the ticks has laid fertile eggs.

Lucilia cuprina larvae = assay: Lucilia cuprina test (LUCICU); assay type: in vivo; details: 48 h, read-out: kill in %
Protocol: as §1
(§2) An appropriate preparation of active compound is prepared by mixing 10 mg of active compound with 0.5 ml of dimethyl sulphoxide and diluting the concentrate with water to the desired concentration.
Vessels containing horse meat treated with the preparation of active compound at the desired concentration are populated with approximately 20 Lucilia cuprina larvae.
After 2 days, the kill in % is ascertained. Here, 100% means that all of the larvae have been killed; 0% means that no larvae have been killed.

[1] = system: green peach aphid (Myzus persicae); assay: Myzus test (MYZUPE spray treatment), Use Example 4; assay type: in vivo; details: 144 h, 100 g/ha, after 6 days, read-out: activity in %
Procedure, shortened: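 Compound was formulated in acetone/dimethylformamide with alkylaryl polyglycol ether emulsifier and diluted in emulsifier-containing water. It was sprayed onto Chinese cabbage leaf discs infested with all stages of Myzus persicae. Mortality (%) was scored after 6 days, where 100% means all aphids killed.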

[2] = system: larvae of the mustard beetle (Phaedon cochleariae); assay: Phaedon test (PHAECO spray treatment); assay type: in vivo; details: 168 h, 100 g/ha, after 7 days, read-out: activity in %
Procedure, shortened: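 Mortality of mustard beetle larvae, expressed as percent killed (100% all, 0% none), assessed 7 days after spraying. Spray liquor made from compound in acetone plus dimethylformamide with alkylaryl polyglycol ether, diluted in emulsifier-containing water to the desired concentration.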

[3] = system: caterpillars of the armyworm (Spodoptera frugiperda); assay: Spodoptera frugiperda test (SPODFR spray treatment); assay type: in vivo; details: 168 h, 100 g/ha, after 7 days, read-out: activity in %
Procedure, shortened: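 Percent caterpillar mortality read 7 days after infestation (0% none killed, 100% all killed). Treatment was a spray of the acetone/DMF/emulsifier formulation, water-diluted to test concentration, onto Zea mays leaf discs, allowed to dry before larvae were added.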

[4] = log P determination by HPLC on reversed-phase columns (EEC Directive 79/831 Annex V.A8); assay type: physicochemical; details: pH 2.7
Procedure, shortened: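 Calibration used unbranched alkan-2-ones of 3 to 16 carbons with known log P, values interpolated linearly from retention times between neighbouring standards. Acidic-range LC-MS run at pH 2.7, eluents aqueous and acetonitrile formic acid 0.1%, linear gradient 10% to 95% acetonitrile.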

adult Musca domestica = assay: Musca domestica test (MUSCDO); assay type: in vivo; details: 48 h, read-out: kill in %
Protocol: as §1
as §2, with “concentration. Vessels containing a sponge treated with the preparation of active compound at the desired concentration are populated with adult Musca domestica.” for “concentration.”
After 2 days, the kill in % is ascertained. Here, 100% means that all of the flies have been killed; 0% means that no flies have been killed.

[5] = reversed-phase C18 HPLC column, HPLC on reversed-phase columns (C 18), EEC Directive 79/831 Annex V.A8, read-out: logP

Structure (SMILES)	pest or weed control at 0.02 mg (Boophilus microplus)	pest or weed control at 100 ppm (Lucilia cuprina larvae; 100 ppm, after 2 days)	pest or weed control at 100 g/ha [1]	pest or weed control at 100 g/ha [2]	pest or weed control at 100 g/ha [3]	chromatographic logP [4, 5]	pest or weed control at 100 ppm (Lucilia cuprina larvae)	chromatographic logP [4]	pest or weed control at 100 ppm (adult Musca domestica; 100 ppm, after 2 days)	pest or weed control at 100 ppm (adult Musca domestica)
Cc1cc(C#N)cc(C(=O)NC(C)(C)C)c1NC(=O)c1cc(Cn2cc(C(F)(F)F)nn2)nn1-c1ncccc1Br [Example 7]	100%	100%	100%	100%	100%	3.44				
CNC(=O)c1cc(Cl)cc(C)c1NC(=O)c1cc(Cn2nnc3cc(C(F)(F)F)ccc32)nn1-c1ncccc1Cl [Example 70]	100%		100%	100%	100%		100%	3.13		
CNC(=O)c1cc(Cl)cc(C)c1NC(=O)c1cc(Cn2ncc(C(F)(F)F)n2)nn1-c1ncccc1Cl [Example 135]	100%		90%	100%	100%		100%	2.99		
Cc1cc(Cl)cc(C(=O)NC(C)C2CC2)c1NC(=O)c1cc(Cn2ncc(C(F)(F)F)n2)nn1-c1ncccc1Cl (centres unmarked) [Example 136]	100%			100%	100%		100%	3.8		
CC(NC(=O)c1cc(Cl)cc(Cl)c1NC(=O)c1cc(Cn2ncc(C(F)(F)F)n2)nn1-c1ncccc1Cl)C1CC1 (centres unmarked) [Example 147]	100%			100%	100%		100%	3.73		
CC(C)(C)NC(=O)c1cc(Cl)cc(Cl)c1NC(=O)c1cc(Cn2ncc(C(F)(F)F)n2)nn1-c1ncccc1Cl [Example 151]	100%		100%	100%	100%		100%	3.8		
CSC[C@H](C)NC(=O)c1cc(Cl)cc(Cl)c1NC(=O)c1cc(Cn2ncc(C(F)(F)F)n2)nn1-c1ncccc1Cl [Example 155]	100%		100%	100%	100%		100%	3.64		
Cc1cc(I)cc(C(=O)NC(C)(C)C)c1NC(=O)c1cc(Cn2ncc(C(F)(F)F)n2)nn1-c1ncccc1Cl [Example 162]	100%			100%	100%		100%	4.11		
Cc1cc(Br)cc(C(=O)NC2CC2)c1NC(=O)c1cc(Cn2ncc(C(F)(F)F)n2)nn1-c1ncccc1Cl [Example 174]	100%		100%	100%	100%		100%	3.28		
Cc1cc(Br)cc(C(=O)NC(C)C)c1NC(=O)c1cc(Cn2ncc(C(F)(F)F)n2)nn1-c1ncccc1Cl [Example 175]	100%			100%	100%		100%	3.55		
Cc1cc(C#N)cc(C(=O)NC(C)C2CC2)c1NC(=O)c1cc(Cn2cc(C(F)(C(F)(F)F)C(F)(F)F)nn2)nn1-c1ncccc1Cl (centres unmarked) [Example 218]	100%	100%		100%	100%	3.73			85%	
NC(=O)c1cc(Cl)cc(Cl)c1NC(=O)c1cc(Cn2cc(C(F)(C(F)(F)F)C(F)(F)F)nn2)nn1-c1ncccc1Cl [Example 247]	100%			100%	100%		100%	3.13		100%
